Reference: patent publication US20110300628A1, “ENHANCEMENT OF EPIDERMAL CELL GROWTH BY NON-PROTEIN GROWTH FACTORS” (priority 2010, published 2011)

Columns and labels:
[1] = system: normal human keratinocytes (NHK cells); assay: Clonal growth assay of normal human keratinocytes in serum-free chemically defined medium; assay type: cell-based; conditions: for effect on clonal growth in high (3×) levels of the six key amino acids: 3× amino acids; for clonal growth of NHK relative to control medium supplemented with IGF-1 and EGF: additive in combination with IGF-1 (5 ng/mL), no EGF, 10 days after plating, diBcAMP 0.1 mM, LiCl 10 mM, PGE1 10 μg/ml; for replacement of protein growth factor requirement for clonal growth of NHK: serum-free medium, 10 days clonal growth; for clonal growth of NHK relative to culture medium supplemented with EGF plus IGF-1: 10 days
Method: The methods for isolating and culturing primary and secondary-passaged normal human neonatal normal human keratinocyte (NHK cells) were those previously employed (Wille et al., 1984). For the purpose of the present invention, secondary serially-passaged cultures were plated at 500 cells/cm in a novel serum-free basal media previously disclosed (Wille J. J., U.S. Pat. No. 5,586,307). This basal nutrient defined culture medium was supplemented either singly with the following additives: diBCAMP (1×10−4 M), LiCl (10 mM), and PGE1 ([…]). All dishes were fixed ten days later, stained with crystal violet stain (0.2%) and photographed.

keratinocyte cells = conditions: low calcium (0.03 mM) or calcium-free, serum-free medium; cited from earlier work

[Cl-].[Li+] [Li+ ions, Lithium chloride]
multiplication of human keratinocyte cells ([1]; 10 mM, serum-free chemically defined medium): stimulate
effect on clonal growth in low (1×) levels of the six key amino acids ([1]; 1× amino acids, with protein growth factors): growth-enhancing effects
effect on clonal growth in high (3×) levels of the six key amino acids ([1]; with protein growth factors, listed as lithium ions): lost
effect on clonal growth in high (3×) levels of the six key amino acids ([1]; with protein growth factors, listed as lithium ions (Li+)): no enhancement
clonal growth of NHK relative to control medium supplemented with IGF-1 and EGF [1]: significantly enhances
replacement of protein growth factor requirement for clonal growth of NHK [1]: can replace EGF
replacement of protein growth factor requirement for clonal growth of NHK ([1]; listed as Lithium ions): completely replaced EGF

CCCCC[C@H](O)/C=C/[C@H]1[C@H](O)CC(=O)[C@@H]1CCCCCCC(=O)O [PGE1, Prostaglandin E1]
clonal growth of NHK relative to control medium supplemented with IGF-1 and EGF [1]: significantly enhanced
clonal growth of NHK relative to culture medium supplemented with EGF plus IGF-1 ([1]; in combination with both EGF and IGF-1): significantly enhanced
clonal growth in elevated (3×) levels of the six key amino acids relative to lower (1×) levels ([1]; in the presence of insulin (5 μg/mL) and EGF (10 ng/mL)): significant enhancement
replacement of protein growth factor requirement for clonal growth of NHK [1]: can replace both EGF and IGF-1
clonal growth of NHK relative to culture medium supplemented with EGF plus IGF-1 ([1]; single addition to medium unsupplemented by any protein growth factors): significantly enhanced

[Sr+2] [Strontium ions (Sr 2+)]
concentration of maximal enhancement of cell viability and increase in cell number (keratinocyte cells): 1.0 to 2.0 mM

CCCC(=O)Nc1ncnc2c1ncn2[C@@H]1O[C@@H]2COP(=O)(O)O[C@H]2[C@H]1OC(=O)CCC [diBcAMP, dibutryl-3′-5′-adenosine monophosphate]
clonal growth of NHK relative to control medium supplemented with IGF-1 and EGF [1]: significantly enhanced
clonal growth of NHK relative to control medium supplemented with IGF-1 and EGF ([1]; listed as diBCAMP): does enhance
replacement of protein growth factor requirement for clonal growth of NHK [1]: can replace EGF
